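Assay format: 96-well plates, 48-hour exposure. TGI is the concentration that stops growth completely.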
Legend:
Test in all cases: NCI-60 cell line screen, 48 h
SK-MEL-28 melanoma = tested on: SK-MEL-28 melanoma
EKVX NSCLC = tested on: EKVX NSCLC
CAKI-1 renal = tested on: CAKI-1 renal
LOX IMVI melanoma = tested on: LOX IMVI melanoma
MDA-MB-435 = tested on: MDA-MB-435
SF-539 CNS = tested on: SF-539 CNS
HCT-116 colon = tested on: HCT-116 colon
UO-31 renal = tested on: UO-31 renal
PC-3 prostate = tested on: PC-3 prostate
CCRF-CEM leukemia = tested on: CCRF-CEM leukemia
SF-268 CNS = tested on: SF-268 CNS
HT29 colon = tested on: HT29 colon
SN12C renal = tested on: SN12C renal
BT-549 breast = tested on: BT-549 breast
SK-OV-3 ovarian = tested on: SK-OV-3 ovarian
KM12 colon = tested on: KM12 colon
M14 melanoma = tested on: M14 melanoma
HCT-15 colon = tested on: HCT-15 colon
SW-620 colon = tested on: SW-620 colon
NCI-H226 lung = tested on: NCI-H226 lung

Measured: TGI

Cc1ccc2c(c1)C(=O)N1CCC[C@H]1C=N2
84.7 µM: BT-549 breast
39.7 µM: KM12 colon
71 µM: EKVX NSCLC
> 83.7 µM: SW-620 colon
22.6 µM: CCRF-CEM leukemia
47.8 µM: M14 melanoma
> 76.4 µM: HCT-15 colon
> 67 µM: UO-31 renal
33.2 µM: MDA-MB-435
> 71.7 µM: CAKI-1 renal
> 74.4 µM: PC-3 prostate
52 µM: SK-MEL-28 melanoma
> 55.6 µM: HT29 colon
37.3 µM: SF-539 CNS
not listed: NCI-H226 lung
> 100 µM: all other assays above

CCCCSC1=N/C(=C\c2ccc(N(C)C)cc2)C(NN)=N1
not listed: SF-539 CNS | UO-31 renal | NCI-H226 lung
> 100 µM: all other assays above

COc1cc(C)cc2c1c(=O)c1ccccc1n2C
38.4 µM: SF-539 CNS
81.5 µM: NCI-H226 lung
76.3 µM: HCT-116 colon
68.5 µM: CCRF-CEM leukemia
53.6 µM: LOX IMVI melanoma
not listed: UO-31 renal
> 100 µM: all other assays above

CCOC(=O)Cc1csc2[n+]1C(=O)/C(=C/c1cccc(OC)c1O)S2
50.5 µM: MDA-MB-435
48.9 µM: BT-549 breast
not listed: CCRF-CEM leukemia | SF-268 CNS
> 100 µM: all other assays above

CC1=CCC2C3(C)CCC2(C(C)C)C1C3 (stereo not given) (tested in a mixture with another compound)
36.2 µM: SN12C renal
32.4 µM: HT29 colon
45.8 µM: BT-549 breast
53.7 µM: SW-620 colon
> 100 µM: HCT-116 colon | PC-3 prostate | SK-OV-3 ovarian
88.6 µM: SK-MEL-28 melanoma
50.9 µM: EKVX NSCLC
87.8 µM: LOX IMVI melanoma
88.2 µM: MDA-MB-435
56.9 µM: CCRF-CEM leukemia
36.1 µM: SF-268 CNS
45.7 µM: M14 melanoma
36.8 µM: KM12 colon
87.4 µM: SF-539 CNS
40.7 µM: CAKI-1 renal
33.3 µM: HCT-15 colon
82.3 µM: UO-31 renal

C/C=C1/CN2CCC3(O)c4ccccc4N4C=C(C(=O)OC)C1CC2C43O (stereo not given)
not listed: NCI-H226 lung
> 100 µM: all other assays above

CC1(C)CC(=O)C2=C(C1)NC1=C(C(=O)CC(C)(C)C1)C2c1ccc([N+](=O)[O-])cc1
not listed: CCRF-CEM leukemia
> 100 µM: all other assays above

O=C(NNC(c1ccccc1)C(F)(F)F)c1ccncc1 (stereo not given)
not listed: UO-31 renal | SK-OV-3 ovarian
> 100 µM: all other assays above

OC[C@]1(n2nc3ccccc3n2)OC[C@@H]1c1ccccc1
99.5 µM: BT-549 breast
69.2 µM: SF-539 CNS
not listed: SW-620 colon
> 100 µM: all other assays above

O=C(Nc1cc2c(=O)oc3ccccc3c2oc1=O)c1cccnc1
not listed: SF-268 CNS
> 100 µM: all other assays above

CCOP(=O)(C/C=C/Cn1nc(Br)c(=O)[nH]c1=O)OCC
not listed: SK-OV-3 ovarian
> 100 µM: all other assays above

C/C(=N\Nc1nc2ccccc2n1C)c1cnccn1
6.17 µM: CCRF-CEM leukemia
> 20 µM: LOX IMVI melanoma
6.53 µM: M14 melanoma
> 33.2 µM: KM12 colon
> 42.5 µM: HT29 colon
not listed: SK-MEL-28 melanoma | HCT-116 colon
> 100 µM: all other assays above

Cc1nc(C(N)=S)sc1C(/C=C/c1ccc(Cl)c(Cl)c1)=N/NC(C)(C)C
not listed: M14 melanoma
> 100 µM: all other assays above

O=C(Nc1nn(C(=O)c2ccc(Cl)cc2)c(=O)s1)c1ccc(Cl)cc1
not listed: SF-539 CNS
> 100 µM: all other assays above

CC(C)(C)OC(=O)N(O)CCCn1cnc2c(N)ncnc21
not listed: CAKI-1 renal
> 100 µM: all other assays above

Cc1nn(C(=O)c2ccncc2)c2c1C(c1ccccc1)SC(N)=N2 (stereo not given)
not listed: UO-31 renal
> 10 µM: all other assays above

COc1cc(NC(C)=O)ccc1C(=O)NN1C(=O)C(Cl)C1c1ccco1 (stereo not given)
not listed: SK-OV-3 ovarian
> 100 µM: all other assays above

NC(=O)NC(=O)c1cccc(CNc2ccc(C(=O)N[C@@H](CCC(=O)O)C(=O)O)cc2)n1
not listed: CCRF-CEM leukemia
> 100 µM: all other assays above

CCN(CC)CCN1C(=O)c2c(c(-c3ccccc3)c3ccccc3c2-c2ccccc2)C1=O
not listed: SK-MEL-28 melanoma | UO-31 renal
> 100 µM: all other assays above

O=C(Nc1c(C(F)(F)F)cc(-c2ccccc2)[nH]c1=O)N1CCOCC1
not listed: SF-539 CNS
> 100 µM: all other assays above

Cc1ccc(C(=O)Nc2ccc(S(=O)(=O)O)c3cc(S(=O)(=O)O)cc(S(=O)(=O)O)c23)cc1NC(=S)Nc1cc(C(=O)Nc2ccc(S(=O)(=O)O)c3cc(S(=O)(=O)O)cc(S(=O)(=O)O)c23)ccc1C
not listed: EKVX NSCLC | SF-539 CNS | SK-OV-3 ovarian | KM12 colon
> 75 µM: all other assays above

O=C(CCCNc1nc(-c2ccccc2)cs1)c1cccs1
not listed: CCRF-CEM leukemia
> 100 µM: all other assays above

CC1(C)CC23CC(C)(C)c4cccc(c42)OCc2ccc4ccc5ccc(nc5c4n2)COc2cccc1c23
not listed: CCRF-CEM leukemia
> 50 µM: all other assays above

CCCCc1ccc(Nc2nc(=S)c3[nH]cnc3[nH]2)cc1
39 µM: BT-549 breast
25.8 µM: KM12 colon
92.6 µM: CAKI-1 renal
31.7 µM: LOX IMVI melanoma
48 µM: SF-539 CNS
60.9 µM: SW-620 colon
31.6 µM: NCI-H226 lung
48.1 µM: MDA-MB-435
59 µM: SN12C renal
22 µM: HT29 colon
47.9 µM: CCRF-CEM leukemia
not listed: EKVX NSCLC | SK-OV-3 ovarian
> 100 µM: all other assays above

O=C1N2CCc3c([nH]c4ccccc34)C23CC2CCCCC12S3 (stereo not given)
not listed: CCRF-CEM leukemia
> 100 µM: all other assays above

— PubChem BioAssay (NCI)
